Results published in ChEMBL document CHEMBL1154622, “Structure-guided design of potent and selective pyrimidylpyrrole inhibitors of extracellular signal-regulated kinase (ERK) using conformational control” (J Med Chem, 2009).

Legend:
[1] = target: Ribosomal protein S6 kinase alpha-3 (Homo sapiens) (UniProt P51812); assay: Inhibition of RSK2 at 1 uM
[2] = target: Serine/threonine-protein kinase Sgk3 (Homo sapiens) (UniProt Q96BR1); assay: Inhibition of SGK3 at 1 uM
[3] = target: Tyrosine-protein kinase JAK3 (Homo sapiens, UniProt P52333); assay: Inhibition of JAK3
[4] = target: Vascular endothelial growth factor receptor 2 (Homo sapiens, UniProt P35968); assay: Inhibition of KDR
[5] = target: Mitogen-activated protein kinase kinase kinase 8 (Homo sapiens, UniProt P41279); assay: Inhibition of COT
[6] = target: Citron Rho-interacting kinase (Homo sapiens, UniProt O14578); assay: Inhibition of CIT
Focal adhesion kinase 1 = Focal adhesion kinase 1 (Homo sapiens, UniProt Q05397); assay: Inhibition of FAK
[7] = target: Interleukin-1 receptor-associated kinase 1 (Homo sapiens, UniProt P51617); assay: Inhibition of IRAK1
[8] = target: RAC-alpha serine/threonine-protein kinase (Homo sapiens) (UniProt P31749); assay: Inhibition of AKT1 at 1 uM
[9] = target: Serine/threonine-protein kinase BRSK1 (Homo sapiens) (UniProt Q8TDC3); assay: Inhibition of BRSK1 at 1 uM
[10] = target: Tyrosine-protein kinase BTK (Homo sapiens) (UniProt Q06187); assay: Inhibition of BTK at 1 uM
[11] = target: Casein kinase I isoform alpha (Homo sapiens) (UniProt P48729); assay: Inhibition of CK1 at 2 uM
[12] = Inhibition of CK2 at 2 uM
[13] = target: Death-associated protein kinase 1 (Homo sapiens) (UniProt P53355); assay: Inhibition of DAPK1 at 1 uM
[14] = target: Fibroblast growth factor receptor 1 (Homo sapiens) (UniProt P11362); assay: Inhibition of FGFR1 at 1 uM
[15] = target: Fibroblast growth factor receptor 3 (Homo sapiens) (UniProt P22607); assay: Inhibition of FGFR3 at 1 uM
[16] = target: Fibroblast growth factor receptor 4 (Homo sapiens) (UniProt P22455); assay: Inhibition of FGFR4 at 1 uM
[17] = target: Macrophage colony-stimulating factor 1 receptor (Homo sapiens) (UniProt P07333); assay: Inhibition of FMS at 1 uM
[18] = target: Insulin-like growth factor 1 receptor (Homo sapiens) (UniProt P08069); assay: Inhibition of IGF1R at 1 uM
[19] = target: Insulin receptor-related protein (Homo sapiens) (UniProt P14616); assay: Inhibition of IRR at 1 uM
[20] = target: Mitogen-activated protein kinase 9 (Homo sapiens) (UniProt P45984); assay: Inhibition of JNK2 at 2 uM
[21] = target: Tyrosine-protein kinase Lck (Homo sapiens) (UniProt P06239); assay: Inhibition of LCK at 2 uM
[22] = target: Tyrosine-protein kinase Lyn (Homo sapiens) (UniProt P07948); assay: Inhibition of LYN at 2 uM
[23] = target: MAP kinase-activated protein kinase 2 (Homo sapiens) (UniProt P49137); assay: Inhibition of MAPKAPK-2 at 1 uM
[24] = target: Serine/threonine-protein kinase MARK1 (Homo sapiens) (UniProt Q9P0L2); assay: Inhibition of MARK1 at 1 uM
[25] = target: Tyrosine-protein kinase Mer (Homo sapiens) (UniProt Q12866); assay: Inhibition of MER at 1 uM
[26] = target: Dual specificity mitogen-activated protein kinase kinase 6 (Homo sapiens) (UniProt P52564); assay: Inhibition of MKK6 at 2 uM
[27] = target: Ribosomal protein S6 kinase alpha-5 (Homo sapiens) (UniProt O75582); assay: Inhibition of MSK1 at 1 uM
[28] = target: Serine/threonine-protein kinase 4 (Homo sapiens) (UniProt Q13043); assay: Inhibition of MST1 at 1 uM
[29] = target: Mitogen-activated protein kinase 13 (Homo sapiens) (UniProt O15264); assay: Inhibition of P38delta at 2 uM
[30] = target: Mitogen-activated protein kinase 12 (Homo sapiens) (UniProt P53778); assay: Inhibition of P38gamma at 2 uM
[31] = target: Serine/threonine-protein kinase PAK 2 (Homo sapiens) (UniProt Q13177); assay: Inhibition of PAK2 at 1 uM
[32] = target: Serine/threonine-protein kinase PAK 3 (Homo sapiens) (UniProt O75914); assay: Inhibition of PAK3 at 1 uM
[33] = target: [Pyruvate dehydrogenase (acetyl-transferring)] kinase isozyme 1, mitochondrial (Homo sapiens) (UniProt Q15118); assay: Inhibition of PDK1 at 2 uM
[34] = target: Phosphorylase b kinase gamma catalytic chain, liver/testis isoform (Homo sapiens) (UniProt P15735); assay: Inhibition of PHKgamma2 at 1 uM
[35] = target: Serine/threonine-protein kinase N2 (Homo sapiens) (UniProt Q16513); assay: Inhibition of PRK2 at 2 uM
[36] = target: Serine/threonine-protein kinase D1 (Homo sapiens) (UniProt Q15139); assay: Inhibition of PRKD1 at 1 uM
[37] = target: Proto-oncogene tyrosine-protein kinase receptor Ret (Homo sapiens) (UniProt P07949); assay: Inhibition of RET at 1 uM
[38] = target: Rho-associated protein kinase 2 (Homo sapiens) (UniProt O75116); assay: Inhibition of ROCK 2 at 2 uM
Aurora kinase A = target: T1, Aurora kinase A (Homo sapiens, UniProt O14965); assay: Inhibition of AURA
T1 sequence (O14965 whole entry): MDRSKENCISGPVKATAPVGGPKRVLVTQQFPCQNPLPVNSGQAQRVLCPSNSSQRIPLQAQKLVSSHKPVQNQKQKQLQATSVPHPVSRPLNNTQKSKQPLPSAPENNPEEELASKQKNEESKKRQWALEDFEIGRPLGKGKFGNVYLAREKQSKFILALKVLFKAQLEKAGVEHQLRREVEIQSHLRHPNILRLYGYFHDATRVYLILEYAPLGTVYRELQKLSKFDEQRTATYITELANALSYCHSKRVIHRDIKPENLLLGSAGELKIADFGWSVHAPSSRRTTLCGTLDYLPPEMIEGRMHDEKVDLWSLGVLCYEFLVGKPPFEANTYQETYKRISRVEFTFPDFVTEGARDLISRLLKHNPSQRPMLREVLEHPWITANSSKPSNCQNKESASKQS

[39] = Distribution coefficient, log D of the compound; format: physicochemical; conditions: octanol/water
[40] = Plasma concentration in rat at 3 mg/kg, iv after 8 hrs; format: ADME, organism-based; parameters: dose 3 mg/kg, route intravenous
[41] = Half life in rat at 10 mg/kg, po; format: ADME, organism-based; parameters: dose 10 mg/kg, route oral; conditions: in vivo
[42] = Volume of distribution at steady state in mouse at 5 mg/kg, iv; format: ADME, organism-based; parameters: dose 5 mg/kg, route intravenous; conditions: in vivo, read-out: Vdss
[43] = AUC (0 to 8 hrs) in mouse at 5 mg/kg, iv; format: ADME, organism-based; parameters: time < 8 hr, dose 5 mg/kg, route intravenous; conditions: plasma
[44] = Oral bioavailability in mouse at 33 mg/kg; format: ADME, organism-based; conditions: in vivo

Sequence of Serine/threonine-protein kinase D1 (Homo sapiens) (Q15139 whole entry): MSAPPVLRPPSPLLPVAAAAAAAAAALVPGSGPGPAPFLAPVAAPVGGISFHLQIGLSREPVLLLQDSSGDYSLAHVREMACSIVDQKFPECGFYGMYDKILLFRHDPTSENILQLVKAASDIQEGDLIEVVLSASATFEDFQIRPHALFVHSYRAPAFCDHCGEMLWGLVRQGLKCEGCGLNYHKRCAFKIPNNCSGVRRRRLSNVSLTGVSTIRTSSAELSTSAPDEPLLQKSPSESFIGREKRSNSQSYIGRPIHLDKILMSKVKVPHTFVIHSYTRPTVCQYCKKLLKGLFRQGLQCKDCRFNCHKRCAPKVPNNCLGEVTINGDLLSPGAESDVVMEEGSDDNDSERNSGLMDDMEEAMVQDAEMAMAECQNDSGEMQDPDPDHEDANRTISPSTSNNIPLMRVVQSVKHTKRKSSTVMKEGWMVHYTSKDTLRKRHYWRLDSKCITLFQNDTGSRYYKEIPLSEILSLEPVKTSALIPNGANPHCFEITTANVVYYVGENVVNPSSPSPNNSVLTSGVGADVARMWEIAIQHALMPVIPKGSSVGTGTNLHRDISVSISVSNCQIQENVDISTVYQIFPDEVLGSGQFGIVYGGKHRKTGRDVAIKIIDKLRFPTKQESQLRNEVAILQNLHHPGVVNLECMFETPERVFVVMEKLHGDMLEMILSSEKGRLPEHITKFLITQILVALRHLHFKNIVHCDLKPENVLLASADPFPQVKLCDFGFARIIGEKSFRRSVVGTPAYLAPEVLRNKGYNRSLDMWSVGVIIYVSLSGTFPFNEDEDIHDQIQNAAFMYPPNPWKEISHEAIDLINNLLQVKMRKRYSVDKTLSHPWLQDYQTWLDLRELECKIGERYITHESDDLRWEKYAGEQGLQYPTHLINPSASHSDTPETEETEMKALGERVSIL
Sequence of Tyrosine-protein kinase BTK (Homo sapiens) (Q06187 whole entry, canonical isoform): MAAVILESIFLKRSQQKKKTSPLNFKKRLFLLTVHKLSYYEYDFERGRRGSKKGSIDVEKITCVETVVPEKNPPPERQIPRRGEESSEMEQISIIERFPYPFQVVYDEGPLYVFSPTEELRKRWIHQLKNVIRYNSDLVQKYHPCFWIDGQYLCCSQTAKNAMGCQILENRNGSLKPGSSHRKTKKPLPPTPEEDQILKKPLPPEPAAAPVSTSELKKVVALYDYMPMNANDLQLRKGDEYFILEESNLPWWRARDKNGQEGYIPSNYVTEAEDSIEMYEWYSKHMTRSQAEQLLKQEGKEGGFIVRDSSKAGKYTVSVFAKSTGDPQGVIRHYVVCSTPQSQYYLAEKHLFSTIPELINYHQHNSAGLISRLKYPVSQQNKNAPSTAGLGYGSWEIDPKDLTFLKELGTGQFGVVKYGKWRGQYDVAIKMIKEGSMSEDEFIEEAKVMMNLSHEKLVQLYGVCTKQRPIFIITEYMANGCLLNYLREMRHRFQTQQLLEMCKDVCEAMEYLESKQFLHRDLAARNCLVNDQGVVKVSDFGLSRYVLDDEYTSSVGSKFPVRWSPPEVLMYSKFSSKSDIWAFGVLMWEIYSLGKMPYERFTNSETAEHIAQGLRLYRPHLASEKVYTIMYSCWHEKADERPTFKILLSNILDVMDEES
Sequence of Mitogen-activated protein kinase 9 (Homo sapiens) (P45984 whole entry, looked up): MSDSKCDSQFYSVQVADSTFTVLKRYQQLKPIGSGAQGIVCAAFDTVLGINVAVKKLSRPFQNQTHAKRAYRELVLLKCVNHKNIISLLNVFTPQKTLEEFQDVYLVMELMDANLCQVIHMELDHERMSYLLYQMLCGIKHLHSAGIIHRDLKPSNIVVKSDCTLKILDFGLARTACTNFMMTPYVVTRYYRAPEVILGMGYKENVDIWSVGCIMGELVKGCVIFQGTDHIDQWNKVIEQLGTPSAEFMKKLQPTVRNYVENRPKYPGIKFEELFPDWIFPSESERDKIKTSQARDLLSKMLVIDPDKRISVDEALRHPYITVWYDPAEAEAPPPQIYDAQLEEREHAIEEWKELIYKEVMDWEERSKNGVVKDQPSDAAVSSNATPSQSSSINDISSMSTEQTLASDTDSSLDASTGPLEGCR
Sequence of Fibroblast growth factor receptor 3 (Homo sapiens) (P22607 23-806 limits assumed): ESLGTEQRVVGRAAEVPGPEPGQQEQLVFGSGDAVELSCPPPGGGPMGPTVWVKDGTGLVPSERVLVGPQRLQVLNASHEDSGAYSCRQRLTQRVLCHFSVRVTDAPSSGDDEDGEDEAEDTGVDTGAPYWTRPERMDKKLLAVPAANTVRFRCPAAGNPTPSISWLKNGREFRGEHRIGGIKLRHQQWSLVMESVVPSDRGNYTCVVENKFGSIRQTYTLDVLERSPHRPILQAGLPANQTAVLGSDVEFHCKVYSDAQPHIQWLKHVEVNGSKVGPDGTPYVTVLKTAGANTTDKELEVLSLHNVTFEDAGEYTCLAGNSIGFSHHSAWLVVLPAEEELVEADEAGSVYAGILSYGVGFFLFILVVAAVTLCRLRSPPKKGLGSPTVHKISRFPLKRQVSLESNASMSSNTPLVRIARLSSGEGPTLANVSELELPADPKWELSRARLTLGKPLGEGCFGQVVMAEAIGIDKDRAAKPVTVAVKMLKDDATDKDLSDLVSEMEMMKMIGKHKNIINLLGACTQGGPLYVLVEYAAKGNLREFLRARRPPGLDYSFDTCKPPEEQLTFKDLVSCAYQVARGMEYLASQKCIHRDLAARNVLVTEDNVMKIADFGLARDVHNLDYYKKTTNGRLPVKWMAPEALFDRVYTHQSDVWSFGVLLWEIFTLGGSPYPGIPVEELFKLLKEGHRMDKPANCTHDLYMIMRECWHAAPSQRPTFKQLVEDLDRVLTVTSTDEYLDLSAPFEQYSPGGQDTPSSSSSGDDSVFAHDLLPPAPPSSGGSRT
Sequence of Macrophage colony-stimulating factor 1 receptor (Homo sapiens) (P07333 whole entry): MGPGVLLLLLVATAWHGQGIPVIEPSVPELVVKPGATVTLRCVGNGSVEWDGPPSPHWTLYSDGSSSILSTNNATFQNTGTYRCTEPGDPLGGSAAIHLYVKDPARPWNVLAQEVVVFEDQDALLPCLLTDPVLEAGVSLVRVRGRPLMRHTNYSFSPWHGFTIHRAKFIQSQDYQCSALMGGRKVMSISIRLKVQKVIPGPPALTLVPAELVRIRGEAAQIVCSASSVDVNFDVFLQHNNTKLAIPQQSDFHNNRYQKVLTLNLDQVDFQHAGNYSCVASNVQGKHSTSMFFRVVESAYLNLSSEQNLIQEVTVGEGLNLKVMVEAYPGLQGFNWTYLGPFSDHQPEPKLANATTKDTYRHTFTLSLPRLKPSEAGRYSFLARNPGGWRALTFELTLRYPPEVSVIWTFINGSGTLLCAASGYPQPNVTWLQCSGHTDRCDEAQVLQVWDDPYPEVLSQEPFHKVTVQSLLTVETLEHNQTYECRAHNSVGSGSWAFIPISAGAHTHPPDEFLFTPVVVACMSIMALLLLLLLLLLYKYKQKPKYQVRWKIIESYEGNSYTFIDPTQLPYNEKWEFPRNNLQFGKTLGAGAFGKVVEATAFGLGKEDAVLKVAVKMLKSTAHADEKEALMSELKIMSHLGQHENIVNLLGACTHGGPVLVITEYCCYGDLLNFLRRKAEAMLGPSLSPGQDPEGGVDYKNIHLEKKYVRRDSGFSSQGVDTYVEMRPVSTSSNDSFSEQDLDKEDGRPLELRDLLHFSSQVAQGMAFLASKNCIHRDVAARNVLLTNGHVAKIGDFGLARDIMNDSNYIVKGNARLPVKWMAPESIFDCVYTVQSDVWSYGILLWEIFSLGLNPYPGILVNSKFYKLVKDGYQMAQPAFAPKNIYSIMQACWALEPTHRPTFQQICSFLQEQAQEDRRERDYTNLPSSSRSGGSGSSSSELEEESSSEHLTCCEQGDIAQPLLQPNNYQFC
Sequence of Tyrosine-protein kinase JAK3 (P52333 whole entry): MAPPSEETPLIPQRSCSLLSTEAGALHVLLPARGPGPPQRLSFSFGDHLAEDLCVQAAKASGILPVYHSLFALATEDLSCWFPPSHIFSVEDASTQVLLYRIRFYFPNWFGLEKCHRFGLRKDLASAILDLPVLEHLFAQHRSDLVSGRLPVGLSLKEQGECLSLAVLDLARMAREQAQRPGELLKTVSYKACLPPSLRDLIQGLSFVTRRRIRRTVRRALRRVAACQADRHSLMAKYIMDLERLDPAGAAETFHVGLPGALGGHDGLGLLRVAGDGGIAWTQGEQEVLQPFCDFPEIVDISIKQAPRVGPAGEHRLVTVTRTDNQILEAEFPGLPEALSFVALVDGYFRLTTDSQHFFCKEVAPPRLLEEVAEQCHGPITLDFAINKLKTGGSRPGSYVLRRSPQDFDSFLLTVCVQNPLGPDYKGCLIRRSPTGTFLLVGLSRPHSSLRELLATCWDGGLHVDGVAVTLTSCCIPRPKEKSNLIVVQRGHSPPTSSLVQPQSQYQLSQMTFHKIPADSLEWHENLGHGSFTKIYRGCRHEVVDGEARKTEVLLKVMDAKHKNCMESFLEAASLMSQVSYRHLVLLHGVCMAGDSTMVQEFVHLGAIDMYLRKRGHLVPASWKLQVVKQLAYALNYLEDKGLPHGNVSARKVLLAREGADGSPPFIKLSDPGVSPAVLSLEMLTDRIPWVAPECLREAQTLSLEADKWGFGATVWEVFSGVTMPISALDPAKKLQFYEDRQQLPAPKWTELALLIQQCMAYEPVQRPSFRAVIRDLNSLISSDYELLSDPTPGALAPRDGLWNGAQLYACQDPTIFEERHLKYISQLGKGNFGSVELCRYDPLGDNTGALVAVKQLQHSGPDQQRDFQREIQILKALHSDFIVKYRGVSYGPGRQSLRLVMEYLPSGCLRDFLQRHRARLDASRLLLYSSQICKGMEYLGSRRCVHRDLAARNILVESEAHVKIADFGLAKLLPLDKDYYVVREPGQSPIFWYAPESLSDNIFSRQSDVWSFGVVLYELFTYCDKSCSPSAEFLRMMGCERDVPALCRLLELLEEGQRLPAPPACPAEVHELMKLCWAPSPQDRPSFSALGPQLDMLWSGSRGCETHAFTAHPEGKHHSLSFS

SMILES: Cc1cnc(Nc2ccc(F)cc2Cl)nc1-c1c[nH]c(C(=O)N[C@H](CO)c2cccc(Cl)c2)c1
- inhibition [1]: 6%
- inhibition [2]: 2%
- Ki [3]: > 4 µM
- Ki [4]: > 4 µM
- Ki [5]: > 4 µM
- Ki [6]: > 10 µM
- Ki (Focal adhesion kinase 1): > 10 µM
- Ki [7]: > 10 µM
- inhibition [8]: 0%
- inhibition [9]: 0%
- inhibition [10]: 5%
- inhibition [11]: 25%
- inhibition [12]: 0%
- inhibition [13]: 2%
- inhibition [14]: 3%
- inhibition [15]: 8%
- inhibition [16]: 0.3%
- inhibition [17]: 6%
- inhibition [18]: 2%
- inhibition [19]: 0%
- inhibition [20]: 43%
- inhibition [21]: 3%
- inhibition [22]: 7%
- inhibition [23]: 0%
- inhibition [24]: 12%
- inhibition [25]: 9%
- inhibition [26]: 9%
- inhibition [27]: 7%
- inhibition [28]: 4%
- inhibition [29]: 54%
- inhibition [30]: 56%
- inhibition [31]: 0%
- inhibition [32]: 3%
- inhibition [33]: 10%
- inhibition [34]: 4%
- inhibition [35]: 14%
- inhibition [36]: 43%
- inhibition [37]: 3%
- inhibition [38]: 57%
- Ki (Aurora kinase A): 0.54 µM
- logD [39]: 4.3
- concentration at 8 h [40]: 50 ng/mL
- half-life [41]: 3 h
- Vd [42]: 5.6 L/kg
- AUC(0-t) at 8 h [43]: 1600 ng·h/mL
- bioavailability [44]: 67%
